# Source: patent US9848599B2, “Co-crystals of 3-iodopropynyl butylcarbamate” (priority 2012, dated 2017)
# Assay: Thermal stability compared with IPBC
# Format: physicochemical
row,Compound,thermal stability compared with IPBC
1,"CCCCNC(=O)OCC#CI.CCCCNC(=O)OCC#CI.c1cc(-c2ccncc2)ccn1 [Co-Crystal 2, Co-Crystal Containing 3-iodopropynyl butylcarbamate and 4,4′-bipyridine in a 2:1 Molar Ratio]",higher thermal stability
2,"Co-Crystal Containing 3-iodopropynyl butylcarbamate and N,N′-bis(4-pyridylcarbonyl)-1,6-hexanediamine in a 2:1 Molar Ratio [Co-Crystal 5]",higher thermal stability
3,Co-crystal containing 3-iodopropynyl butylcarbamate and 4-[2-(4-pyridinyl)ethyl]pyridine in a 2:1 Molar Ratio [Co-Crystal 1],higher thermal stability
